One assay concerns MRC5. As to the kind of experiment: Antifibrotic activity in human MRC5 cells assessed as inhibition of cell growth after 24 hrs by MTT assay. In kind it is functional, cell-based. As to conditions: MRC5, 24 h. (In general: Formazan colour is commonly taken as a measure of viable cells.)
In assay [1] the target is T1, Mitogen-activated protein kinase 14 (Homo sapiens, UniProt Q16539). The assay is described as follows: Inhibition of p38alpha (unknown origin) up to 60 mins by ADP-Glo assay.
T1 sequence (Q16539 whole entry): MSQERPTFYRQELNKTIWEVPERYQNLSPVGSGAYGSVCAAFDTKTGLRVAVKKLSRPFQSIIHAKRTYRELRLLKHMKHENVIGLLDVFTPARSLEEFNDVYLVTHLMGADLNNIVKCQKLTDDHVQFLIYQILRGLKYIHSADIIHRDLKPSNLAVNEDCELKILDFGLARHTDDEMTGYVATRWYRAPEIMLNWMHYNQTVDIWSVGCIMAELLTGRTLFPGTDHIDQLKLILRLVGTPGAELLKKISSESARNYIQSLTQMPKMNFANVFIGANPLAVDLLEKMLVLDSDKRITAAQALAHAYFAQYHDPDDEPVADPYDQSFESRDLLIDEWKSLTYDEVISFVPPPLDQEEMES
The target in assay [2] is T1, Mitogen-activated protein kinase 14. As to the kind of experiment: Ratio of pirfenidone IC50 for compound IC50 for p38alpha (unknown origin) up to 60 mins by ADP-Glo assay. (In general: ADP-Glo first removes unused ATP, then detects ADP through luciferase.)

In the case of `Cc1ccc(=O)n(-c2ccc(OCCN3CCOCC3)cc2)c1`, in the assay on MRC5, the IC50 (in general, the midpoint of a concentration-inhibition curve) turned out to be 7640 µM.
Same read-out and setting: next, `CCN(CC)CCCCOc1ccc(-n2cc(C)ccc2=O)cc1`: 2160 µM.
`Cc1ccc(=O)n(-c2ccccc2)c1` [PIRFENIDONE]: the IC50 in the assay on MRC5 stood at 14400 µM; in assay [1], 165 µM.
Regarding `Cc1ccc(=O)n(-c2ccc(OCCCCN3CCN(C)CC3)cc2)c1`, the IC50 in the assay on MRC5 is 2330 µM.
`Cc1ccc(=O)n(-c2ccc(OCCCCN3CCCCC3)cc2)c1`: the IC50 in the assay on MRC5 was found to be 3290 µM; in assay [1] it was 5.21 µM.
Turning to `Cc1ccc(=O)n(-c2ccc(OCCCCN3CCOCC3)cc2)c1`, in the assay with MRC5, the IC50 amounted to 3030 µM.
Consider `Cc1ccc(=O)n(-c2ccc(OCCCN3CCN(C)CC3)cc2)c1`, for which the IC50 in the assay on MRC5 was found to be 4360 µM.
The same measure, in the same setting: next, `CCN(CC)CCCOc1ccc(-n2cc(C)ccc2=O)cc1`: 2100 µM; `Cc1ccc(=O)n(-c2ccc(OCCN3CCCC3)cc2)c1`: 3780 µM.
For the compound `Cc1ccc(=O)n(-c2ccc(OCCCCCN(C)C)cc2)c1`, in the assay with MRC5, the half-inhibitory concentration (IC50) came out at 2980 µM.
Same read-out and setting: to `Cc1ccc(=O)n(-c2ccc(OCCCCCN3CCN(C)CC3)cc2)c1` belongs 3410 µM.
Turning to `Cc1ccc(=O)n(-c2ccc(OCCCN3CCCCC3)cc2)c1`, the results for the IC50 (in the assay with MRC5; in assay [1]) were 2550 µM and 4.07 µM, respectively. Besides, the Ratio IC50 in assay [2] was 40.
For `Cc1ccc(=O)n(-c2ccc(OCCN(C)C)cc2)c1`, the IC50 in the assay with MRC5 came out at 6880 µM.
Same read-out and setting: next, `Cc1ccc(=O)n(-c2ccc(OCCCN3CCOCC3)cc2)c1`: 5280 µM; `Cc1ccc(=O)n(-c2ccc(OCCCCCN3CCOCC3)cc2)c1`: 2590 µM.
Still for that read-out and setting: next, `Cc1ccc(=O)n(-c2ccc(OCCCCCN3CCCC3)cc2)c1`: 1470 µM; `Cc1ccc(=O)n(-c2ccc(OCCCCN3CCCC3)cc2)c1`: 1770 µM.
The same measure, in the same setting: to `Cc1ccc(=O)n(-c2ccc(OCCCCN(C)C)cc2)c1` belongs 1800 µM.
`Cc1ccc(=O)n(-c2ccc(OCCN3CCCCC3)cc2)c1`: the IC50 with MRC5 is 2480 µM; in assay [1], 54.3 µM.
In the case of `Cc1ccc(=O)n(-c2ccc(OCCN3CCN(C)CC3)cc2)c1`, in the assay on MRC5, the IC50 is 1360 µM.
In the case of `Cc1ccc(=O)n(-c2ccc(OCCCN3CCCC3)cc2)c1`, in the assay on MRC5, the IC50 came out at 3000 µM.
On the same count and under the same terms, next, `CCN(CC)CCCCCOc1ccc(-n2cc(C)ccc2=O)cc1`: 4350 µM.
As to `Cc1ccc(=O)n(-c2ccc(OCCCN(C)C)cc2)c1`, the figures for the IC50 (in the assay with MRC5; in assay [1]) were 5220 µM and 14.2 µM, respectively.
`CCN(CC)CCOc1ccc(-n2cc(C)ccc2=O)cc1`: in the assay with MRC5, the IC50 worked out at 6200 µM.
Take `Cc1ccc(=O)n(-c2ccc(OCCCCCN3CCCCC3)cc2)c1`: the IC50 with MRC5 came out at 3670 µM; in assay [1], 16.2 µM.
